This is an account of results in patent US7982043B2, “Protein tyrosine kinase enzyme inhibitors” (Wyeth LLC, priority 2003, dated 2011).

For one assay, the target named is T1, Her-2 (Homo sapiens, UniProt P04626).
T1 construct: For Her-2 and EGFR phosphorylation assays, cells (BT474 and A431, respectively) were incubated with various concentrations of compound; endogenous in cells; host or cells: BT474
The assay is described as follows: Her-2 receptor phosphorylation in BT474 cells (immunoblot). The conditions noted are these: Her-2 phosphorylation, 3 hours at 37° C., immunoblot; read-out: IC50 receptor phosphorylation BT474 (converted). The assay is classed as cell-based.

In another assay the test system is A431 cells. The assay can be described thus: Cell proliferation assay (SRB), A431. As to conditions: Homo sapiens, A-431, 48 h, read-out: CELL IC50 A431. Format: cell-based.
A further assay has as its system SW620 cells. The assay is described as follows: Cell proliferation assay (SRB), SW620. The conditions noted are these: Homo sapiens, SW-620, 48 h; EGFR −, Her-2 −; 2 days, SRB; read-out: CELL IC50 SW620. The assay is classed as cell-based.
The subject of another assay is MDA-MB-435 cells. The assay can be described thus: Cell proliferation assay (SRB), MDA-MB-435. Format: cell-based. The conditions noted are these: Homo sapiens, MDA-MB-435, 48 h; EGFR −, Her-2 −; 2 days, SRB; read-out: CELL IC50 MDA-MB-435.
Assay [1] addresses mouse fibroblast cell line transfected with the HER-2 oncogene (3T3/neu) (UniProt P04626, cells depend on it, species not given). The assay is described as follows: Cell proliferation assay (SRB), 3T3/neu. Format: cell-based. As to conditions: EGFR −, Her-2 +++; 2 days, SRB; read-out: CELL IC50 3T3/NEU (converted).
The test system of another assay is SK-Br-3 cells. The assay is described as follows: Cell proliferation assay (SRB), SK-Br-3. The assay is classed as cell-based. As to conditions: Homo sapiens, SK-BR-3, 48 h; EGFR −, Her-2 +++; 2 days, SRB; read-out: CELL IC50 SKBr3.
Another assay has as its system 3T3 cells. The assay can be described thus: Cell proliferation assay (SRB), 3T3. Format: cell-based, mouse. As to conditions: Mus musculus, NIH3T3, 48 h; EGFR −, Her-2 −; 2 days, SRB; read-out: CELL IC50 3T3.
For a further assay, the system named is BT474 cells. The assay can be described thus: Cell proliferation assay (SRB), BT474. The assay is classed as cell-based, human. As to conditions: Homo sapiens, BT-474, 144 h; EGFR +, Her-2 +++; 6 days, SRB; read-out: CELL IC50 BT474.

≈ marks a conversion by molar mass, not a printed value. Read-outs that look alike come from different tables or passages of the source. A value given as a limit tells only on which side of the number the result lay.

T1 sequence (P04626 23-1255): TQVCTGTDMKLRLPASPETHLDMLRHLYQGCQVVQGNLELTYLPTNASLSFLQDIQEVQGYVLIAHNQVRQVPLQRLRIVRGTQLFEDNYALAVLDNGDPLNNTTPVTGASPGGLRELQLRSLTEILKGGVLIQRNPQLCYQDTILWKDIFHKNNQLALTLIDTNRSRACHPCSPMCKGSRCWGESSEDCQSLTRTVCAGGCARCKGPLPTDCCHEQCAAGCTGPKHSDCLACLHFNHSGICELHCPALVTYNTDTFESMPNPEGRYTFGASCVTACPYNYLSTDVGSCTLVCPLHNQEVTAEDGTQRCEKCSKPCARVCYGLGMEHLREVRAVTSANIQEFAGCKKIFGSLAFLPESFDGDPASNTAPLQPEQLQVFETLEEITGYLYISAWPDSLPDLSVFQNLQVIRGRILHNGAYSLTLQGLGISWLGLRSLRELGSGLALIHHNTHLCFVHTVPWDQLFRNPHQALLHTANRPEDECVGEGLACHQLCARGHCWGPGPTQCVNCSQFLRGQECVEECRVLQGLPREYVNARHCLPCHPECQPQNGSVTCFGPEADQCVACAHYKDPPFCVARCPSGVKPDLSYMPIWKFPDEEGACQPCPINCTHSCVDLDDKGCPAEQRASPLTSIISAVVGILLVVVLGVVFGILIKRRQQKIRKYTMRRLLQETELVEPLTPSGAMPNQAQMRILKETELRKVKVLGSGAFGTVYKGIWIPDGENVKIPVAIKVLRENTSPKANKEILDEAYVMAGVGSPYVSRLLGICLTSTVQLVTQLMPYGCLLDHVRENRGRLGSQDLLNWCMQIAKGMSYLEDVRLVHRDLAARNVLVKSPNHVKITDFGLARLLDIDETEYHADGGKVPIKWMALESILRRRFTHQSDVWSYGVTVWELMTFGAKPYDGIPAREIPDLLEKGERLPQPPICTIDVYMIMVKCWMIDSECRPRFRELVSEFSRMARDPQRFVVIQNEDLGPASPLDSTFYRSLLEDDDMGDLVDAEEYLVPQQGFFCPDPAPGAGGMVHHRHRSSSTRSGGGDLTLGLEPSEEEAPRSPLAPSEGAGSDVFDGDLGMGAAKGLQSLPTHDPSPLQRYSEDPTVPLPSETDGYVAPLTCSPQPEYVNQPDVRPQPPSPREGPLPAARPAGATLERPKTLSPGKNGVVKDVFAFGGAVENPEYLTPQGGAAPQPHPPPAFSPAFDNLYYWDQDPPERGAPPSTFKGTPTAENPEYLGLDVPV

As for `COc1cc2ncc(C#N)c(Nc3ccc(Sc4nccn4C)c(Cl)c3)c2cc1NC(=O)/C=C/CN(C)C` [Example 37, (2E)-N-[4-({3-chloro-4-[(1-methyl-1H-imidazol-2-yl)sulfanyl]phenyl}amino)-3-cyano-7-methoxy-6-quinolinyl]-4-(dimethylamino)-2-butenamide], the IC50 at Her-2 is less than 1820 nM; in the assay with A431 cells, 0.02 µg/mL (≈ 0.0365 µM); in the assay with SW620 cells it was 0.43 µg/mL (≈ 0.785 µM); with MDA-MB-435 cells it was 0.43 µg/mL (≈ 0.785 µM); in the assay on SK-Br-3 cells, 0.0004 µg/mL (≈ 0.00073 µM). The GI50 in assay [1] was 36.5 nM.

Take `COc1cc2ncc(C#N)c(Nc3ccc(Sc4nccs4)c(Cl)c3)c2cc1NC(=O)/C=C/CN(C)C` [Example 40, (2E)-N-(4-{[3-chloro-4-(1,3-thiazol-2-ylsulfanyl)phenyl]amino}-3-cyano-7-methoxy-6-quinolinyl)-4-(dimethylamino)-2-butenamide]: the IC50 at Her-2 was 18100 to 90700 nM; in the assay on A431 cells it was 0.017 µg/mL (≈ 0.0308 µM); with SW620 cells, 1.13 µg/mL (≈ 2.05 µM); in the assay on MDA-MB-435 cells, 0.33 µg/mL (≈ 0.599 µM); with SK-Br-3 cells, 0.0007 µg/mL (≈ 0.00127 µM). The GI50 in assay [1] was 3.63 nM.

For `COc1cc2ncc(C#N)c(Nc3ccc(Sc4nc(-c5ccccc5)cs4)c(Cl)c3)c2cc1NC(=O)/C=C/CN(C)C` [Example 58, (E)-N-(4-{3-chloro-4-[(4-phenyl-1,3-thiazol-2-yl)sulfanyl]anilino}-3-cyano-7-methoxy-6-quinolinyl)-4-(dimethylamino)-2-butenamide], the IC50 is 79700 to 797000 nM on Her-2; 0.162 µg/mL (≈ 0.258 µM) in the assay with A431 cells (EGFR +++, Her-2 +, 2 days, SRB); 0.57 µg/mL (≈ 0.909 µM) in the assay with SW620 cells; 0.23 µg/mL (≈ 0.367 µM) in the assay on MDA-MB-435 cells; 0.005 µg/mL (≈ 0.00797 µM) with SK-Br-3 cells. Also, the GI50 in assay [1] is 44.6 nM.

As for `CCOc1cc2ncc(C#N)c(Nc3ccc(OCc4cccs4)c(Cl)c3)c2cc1NC(=O)/C=C/CN(C)C` [Example 76, (2E)-N-{4-[3-chloro-4-(2-thienylmethoxy)anilino]-3-cyano-7-ethoxy-6-quinolinyl}-4-(dimethylamino)-2-butenamide], the IC50 at Her-2 was 2.67 nM; in the assay with 3T3 cells, 0.41 µg/mL (≈ 0.729 µM); in the assay with BT474 cells, 0.003 µg/mL (≈ 0.00534 µM); in the assay on SW620 cells, 0.25 µg/mL (≈ 0.445 µM); with MDA-MB-435 cells it was 0.77 µg/mL (≈ 1.37 µM); with SK-Br-3 cells it was 0.004 µg/mL (≈ 0.00712 µM). In assay [1], the GI50 is 6.94 nM.
